In brackets after ≈: the same amount, converted by molar mass.
How the values were obtained:
[1] = test system: Staphylococcus aureus FDA209P; assay: Minimum inhibitory concentration, Staphylococcus aureus FDA209P; format: cell-based; conditions: 0.5% peptone agar, 37° C., 17 hours
Experimental: (§1) *Minimum inhibitory concentrations were determined on a 0.5% peptone agar
(§2) by incubation at 37° C. for 17 hours.

[2] = test system: Staphylococcus aureus Smith; assay: Minimum inhibitory concentration, Staphylococcus aureus Smith; format: cell-based; conditions: 0.5% peptone agar, 37° C., 17 hours
Experimental: as §1, §2

Sarcina lutea PCI1001 = assay: Minimum inhibitory concentration, Sarcina lutea PCI1001; format: cell-based; conditions: Micrococcus luteus, 0.5% peptone agar, 37° C., 17 hours
Experimental: as §1, §2

Micrococcus flavus FDA16 = assay: Minimum inhibitory concentration, Micrococcus flavus FDA16; format: cell-based; conditions: 0.5% peptone agar, 37° C., 17 hours
Experimental: as §1, §2

[3] = test system: Bacillus subtilis NRRL B-558; assay: Minimum inhibitory concentration, Bacillus subtilis NRRL B-558; format: cell-based; conditions: NRRLB558, 0.5% peptone agar, 37° C., 17 hours
Experimental: as §1, §2

[4] = test system: Mycobacterium smegmatis ATC607; assay: Minimum inhibitory concentration, Mycobacterium smegmatis ATC607; format: cell-based; conditions: Mycolicibacterium smegmatis, 0.5% peptone agar, 37° C., 17 hours
Experimental: as §1, §2

Escherichia coli NIHJ = assay: Minimum inhibitory concentration, Escherichia coli NIHJ; format: cell-based; conditions: 0.5% peptone agar, 37° C., 17 hours
Experimental: as §1, §2

Escherichia coliK-12 = assay: Minimum inhibitory concentration, Escherichia coli K-12; format: cell-based; conditions: 0.5% peptone agar, 37° C., 17 hours
Experimental: as §1, §2

[5] = test system: Escherichia coli K-12 ML1629; assay: Minimum inhibitory concentration, Escherichia coli K-12 ML1629; format: cell-based; conditions: K12ML1629, 0.5% peptone agar, 37° C., 17 hours
Experimental: as §1, §2

Salmonella typhi T-63 = assay: Minimum inhibitory concentration, Salmonella typhi T-63; format: cell-based; conditions: Salmonella enterica, 17 h, read-out: Minimum Inhibitory Concentration
Experimental: as §1, §2

Proteus vulgaris OX-19 = assay: Minimum inhibitory concentration, Proteus vulgaris OX-19; format: cell-based; conditions: OX19, 0.5% peptone agar, 37° C., 17 hours
Experimental: as §1, §2

Proteus rettgeri GN311 = assay: Minimum inhibitory concentration, Proteus rettgeri GN311; format: cell-based; conditions: Providencia rettgeri, 0.5% peptone agar, 37° C., 17 hours
Experimental: as §1, §2

Proteus rettgeri GN466 = assay: Minimum inhibitory concentration, Proteus rettgeri GN466; format: cell-based; conditions: Providencia rettgeri, 0.5% peptone agar, 37° C., 17 hours
Experimental: as §1, §2

Serratia marcescens = assay: Minimum inhibitory concentration, Serratia marcescens; format: cell-based; conditions: 0.5% peptone agar, 37° C., 17 hours
Experimental: as §1, §2

[6] = test system: Klebsiella pneumoniae PCI602; assay: Minimum inhibitory concentration, Klebsiella pneumoniae PCI602; format: cell-based; conditions: 0.5% peptone agar, 37° C., 17 hours
Experimental: as §1, §2

Pseudomonas fluorescens = assay: Minimum inhibitory concentration, Pseudomonas fluorescens; format: cell-based; conditions: 0.5% peptone agar, 37° C., 17 hours
Experimental: as §1, §2

[7] = test system: Pseudomonas aeruginosa A3; assay: Minimum inhibitory concentration, Pseudomonas aeruginosa A3; format: cell-based; conditions: 0.5% peptone agar, 37° C., 17 hours
Experimental: as §1, §2

[8] = test system: Pseudomonas aeruginosa No. 12; assay: Minimum inhibitory concentration, Pseudomonas aeruginosa No. 12; format: cell-based; conditions: 0.5% peptone agar, 37° C., 17 hours
Experimental: as §1, §2

[9] = Stability in aqueous or 0.02N HCl aqueous solution; format: physicochemical; conditions: in words
[10] = test system: Gram-positive and Gram-negative bacteria; assay: Antibacterial activity against Gram-positive and Gram-negative bacteria; format: cell-based; conditions: in words
Experimental: as §1, §2

SMILES: CN(CC(=O)O)NC(=O)C[C@H](N)CCCN [Deoxynegamycin]
- MIC [1]: 25 µg/mL (≈ 108 µM)
- MIC [2]: 6.25 µg/mL (≈ 26.9 µM)
- MIC (Sarcina lutea PCI1001): > 100 µg/mL
- MIC (Micrococcus flavus FDA16): 50 µg/mL (≈ 215 µM)
- MIC [3]: 100 µg/mL (≈ 431 µM)
- MIC [4]: 50 µg/mL (≈ 215 µM)
- MIC (Escherichia coli NIHJ): 6.25 µg/mL (≈ 26.9 µM)
- MIC (Escherichia coliK-12): 3.13 µg/mL (≈ 13.5 µM)
- MIC [5]: 3.13 µg/mL (≈ 13.5 µM)
- MIC (Salmonella typhi T-63): 0.78 µg/mL (≈ 3.36 µM)
- MIC (Proteus vulgaris OX-19): 3.13 µg/mL (≈ 13.5 µM)
- MIC (Proteus rettgeri GN311): 6.25 µg/mL (≈ 26.9 µM)
- MIC (Proteus rettgeri GN466): 3.13 µg/mL (≈ 13.5 µM)
- MIC (Serratia marcescens): 25 µg/mL (≈ 108 µM)
- MIC [6]: 6.25 µg/mL (≈ 26.9 µM)
- MIC (Pseudomonas fluorescens): 3.13 µg/mL (≈ 13.5 µM)
- MIC [7]: 25 µg/mL (≈ 108 µM)
- MIC [8]: 50 µg/mL (≈ 215 µM)
- stability in aqueous solution (general statement) [9]: quite stable in aqueous solution
- inhibition of growth of Gram-positive and Gram-negative bacteria [10]: active against Gram-positive and Gram-negative bacteria

SMILES: CO[C@@H](CN)C[C@@H](N)CC(=O)NN(C)CC(=O)O [O-Methylnegamycin]
- MIC [1]: 12.5 µg/mL (≈ 47.7 µM)
- MIC [2]: 6.25 µg/mL (≈ 23.8 µM)
- MIC (Sarcina lutea PCI1001): 25 µg/mL (≈ 95.3 µM)
- MIC (Micrococcus flavus FDA16): 50 µg/mL (≈ 191 µM)
- MIC [3]: 50 µg/mL (≈ 191 µM)
- MIC [4]: 25 µg/mL (≈ 95.3 µM)
- MIC (Escherichia coli NIHJ): 6.25 µg/mL (≈ 23.8 µM)
- MIC (Escherichia coliK-12): 3.13 µg/mL (≈ 11.9 µM)
- MIC [5]: 1.56 µg/mL (≈ 5.95 µM)
- MIC (Salmonella typhi T-63): 1.56 µg/mL (≈ 5.95 µM)
- MIC (Proteus vulgaris OX-19): 1.56 µg/mL (≈ 5.95 µM)
- MIC (Proteus rettgeri GN311): 6.25 µg/mL (≈ 23.8 µM)
- MIC (Proteus rettgeri GN466): 3.13 µg/mL (≈ 11.9 µM)
- MIC (Serratia marcescens): 25 µg/mL (≈ 95.3 µM)
- MIC [6]: 6.25 µg/mL (≈ 23.8 µM)
- MIC (Pseudomonas fluorescens): 1.56 µg/mL (≈ 5.95 µM)
- MIC [7]: 12.5 µg/mL (≈ 47.7 µM)
- MIC [8]: 25 µg/mL (≈ 95.3 µM)
- stability in aqueous solution (general statement) [9]: quite stable in aqueous solution
- inhibition of growth of Gram-positive and Gram-negative bacteria [10]: active against Gram-positive and Gram-negative bacteria

Reference: patent publication US4065495A (Zaidan Hojin Biseibutsu Kagaku Kenkyu Kai, priority 1975, dated 1977)
